From patent US10428114B2, “Type polypeptide targeting tumours” (SICHUAN UNIVERSITY, priority 2015, dated 2019)
≈ marks a conversion by molar mass, not a printed value. Bridges are numbered along the chain shown (N, C = ends). Where no end group is shown, it is not given here. [ ]: non-standard residue; d: D form. GABA = NCCCC(=O)O

Assays:
4T1 tumours [1] = assay: Evaluation of peptide-bond linked RGD-AAN peptides with doxorubicin, 4T1 model; assay type: in vivo, Balb/c mice; conditions: doxorubicin 5 mg/kg with peptide
Description: (§1) The dose of doxorubicin was 5 mg/kg for all groups. Two groups were administrated with above-mentioned peptides, respectively.

[2] = system: CoCl2-treated 4T1 and M2 type macrophages, HUVEC, untreated 4T1 cells; assay: Cell uptake experiments; assay type: cell-based; conditions: HUVEC with low legumain expression and untreated 4T1 cells
Description: (§2) The targeting ability of nRGD was studied through in vitro and in vivo experiments by the inventors.

[3] = system: tumour vessels and tumour-associated macrophages (TAMs); assay: In vivo targeting and tumour microenvironment study in 4T1 tumours (immunofluorescence, immunohistochemistry, RT-PCR, ELISA); parameters: species or system Balb/c mice
Description: (§3) Female Balb/c mice were inoculated with 5×10^5 4 T1 cells and randomly divided into 7 groups: saline group (NS), Dox group, PEG-Lipo-Dox group, iRGD-Lipo-Dox group, nRGD-Lipo-Dox group, Dox and nRGD coadministration group (Dox+nRGD), PEGylated liposome and nRGD coadministration group (PEG-Lipo-Dox+nRGD). The mice were injected with 5 mg/kg Dox equivalents of drugs or various formulations on day 8 and day 12. The single dose of the coadministration group included two shoots; one shoot was an equivalent drug or formulation of 5 mg/kg Dox, while the other shoot was 4.8 mg/kg nRGD. The volume and body weight of the mice were measured every two days. Some mice were sacrificed for mechanism and toxicity study on day 20. The average tumour growth inhibition (TGI) was calculated after tumour weighing: TGI=(1−(mean tumour weight of treatment group/(average tumour weight of control group))×100%. The antitumour effect and mechanism were studied by HE, immunohistochemistry, RT-PCR, immunofluorescence and ELISA. Plasma samples were collected for ELISA detection. Tissue samples were evaluated for toxicity by HE staining. The remaining mice were studied for survival time.

4T1 tumours [4] = assay: Pharmacodynamics of paclitaxel and its albumin nanoparticles with nRGD, 4T1 tumour model; assay type: in vivo
Description: The mice were injected with 10 mg/kg PTX equivalents of drugs or various formulations on day 8, day 12 and day 16.

4T1 tumours [5] = assay: Pharmacological effects of lycobetaine and its nanostructured lipid carriers with nRGD, 4T1 tumour model; assay type: in vivo
Description: Normal saline group (N. S), IBT group, lycobetaine nanostructured lipid carriers group (IBT-NLC), lycobetaine and nRGD coadministration group (IBT+nRGD), and lycobetaine nanostructured lipid carriers and nRGD coadministration group (IBT-NLC+nRGD). The mice were injected with 12 mg/kg IBT equivalents of drugs or various formulations on day 8, day 9 and day 10.

4T1 tumours [6] = assay: Pharmacological effects of docetaxel and its micells with nRGD, 4T1 tumour model; assay type: in vivo
Description: Female Balb/c mice were inoculated with 5×10^5 4T1 cells and randomly divided into 5 groups: normal saline group (N. S), TXT group, docetaxel micells group (TXT-micells), docetaxel and nRGD coadministration group (TXT+nRGD), and docetaxel micells and nRGD coadministration group (TXT-micells+nRGD). The mice were injected with 15 mg/kg TXT equivalents of drugs or various formulations on day 8, day 10 and day 12.

glioma = assay: Glioma model survival; assay type: in vivo, mice; conditions: lycobetaine and octreotide liposomes, peptide as a mixture or on the liposome surface
Description: Mice having glioma were randomly divided into 9 groups, 20 mice each: normal saline group (N.S), teniposide group, free lycobetaine and octreotide group (free IBT & OCT), lycobetaine and octreotide PEGylated liposomes group (PEG-Liposome), liposomes and iRGD coadministration group (PEG-Liposome+iRGD), liposomes and nRGD coadministration group (PEG-Liposome+nRGD), iRGD modified lycobetaine and octreotide PEGylated liposomes (iRGD-Liposome), nRGD modified lycobetaine and octreotide PEGylated liposomes (nRGD-Liposome), liposomes and nRGD coadministration group (blank). The mice were injected with 10 mg/kg IBT and […] OCT equivalents of drugs or various formulations on day 5, day 7, day 9, day 11 and day 12. As positive control group, mice were injected with 10 mg/kg teniposide on day 5, day 7, day 9, day 11 and day 12. […] The survival of the mice was recorded daily and the survival curve was plotted.

4T1 tumours [7] = assay: Screening of the administration manner of nRGD with doxorubicin, 4T1 model; assay type: in vivo, Balb/c mice; conditions: nRGD in combination with, prior to or after doxorubicin
Description: Female Balb/c mice were inoculated with 5×10^5 4 T1 cells and randomly divided into 3 groups. nRGD was administered in combination with doxorubicin, nRGD was administered prior to doxorubicin or after doxorubicin.

4T1 tumours [8] = assay: Screening of the working concentration of nRGD with doxorubicin, 4T1 model; assay type: in vivo, Balb/c mice; conditions: doxorubicin 5 mg/kg; nRGD 1, 2, 4, 8, 10 mg/kg
Description: The dose of doxorubicin was 5 mg/kg, while the nRGD concentration was 1, 2, 4, 8, 10 mg/kg, respectively.

[9] = mouse, in vivo
4T1 tumours [10] = assay: Evaluation of 4Abu linked RGD-AAN peptides with doxorubicin, 4T1 model; assay type: in vivo, Balb/c mice; conditions: doxorubicin 5 mg/kg with peptide
Description: as §1

4T1 tumours [11] = assay: Pharmacodynamics of doxorubicin and its liposomes in 4T1 tumour model; assay type: in vivo, Balb/c mice; conditions: day 20
Description: as §3

Raw 264.7 cells = assay: Median lethal dose (IC50) against Raw 264.7 cells at 24 h; assay type: cell-based
Description: as §2

HUVEC = assay: Median lethal dose (IC50) against HUVEC at 24 h; assay type: cell-based; conditions: n = 3
Description: as §2

4T1 cells = assay: Median lethal dose (IC50) against 4T1 cells at 24 h; assay type: cell-based
Description: as §2

legumain = target: T1, legumain (UniProt O89017 18-325, limits assumed); assay: cell-based or functional assay
T1 sequence (looked up): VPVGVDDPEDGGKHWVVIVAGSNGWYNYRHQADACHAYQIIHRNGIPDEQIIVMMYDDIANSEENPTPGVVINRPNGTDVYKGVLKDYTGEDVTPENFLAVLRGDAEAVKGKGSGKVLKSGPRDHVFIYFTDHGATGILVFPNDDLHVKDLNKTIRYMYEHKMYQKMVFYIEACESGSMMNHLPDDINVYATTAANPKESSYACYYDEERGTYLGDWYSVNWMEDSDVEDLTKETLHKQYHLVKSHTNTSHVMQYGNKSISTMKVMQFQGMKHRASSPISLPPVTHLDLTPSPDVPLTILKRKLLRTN

c(RGDfK)AAN (cyclo(RGD[dF]KAAN); also: attachment point of AAN on cyclic RGDfK not given here)
efficacy of doxorubicin (4T1 tumours [1]): can improve the efficacy of doxorubicin

CCRGDK(NAA)GPDC (CCRGDKGPDC) [nRGD]
cell uptake [2]: significantly reduced compared to iRGD | accumulation of Dox in the tumour site ([3]; tumour sections): increased the accumulation of Dox in the tumour site | anti-tumour efficacy (4T1 tumours [4]; 10 mg/kg PTX equivalents day 8, 12, 16 with 4.8 mg/kg nRGD): increased the anti-tumour efficacy of PTX and PTX-BSA | body weight and toxicity (4T1 tumours [4]; mouse, in vivo): did not reduce the body weight of the mice or increase the toxicity | anti-tumour efficacy (4T1 tumours [5]; 12 mg/kg IBT equivalents day 8, 9, 10 with 4.8 mg/kg nRGD): increased the anti-tumour efficacy of PTX and PTX-BSA | body weight and toxicity (4T1 tumours [5]; mouse, in vivo): did not reduce the body weight of the mice or increase the toxicity | anti-tumour efficacy (4T1 tumours [6]; 15 mg/kg TXT equivalents day 8, 10, 12 with 4.8 mg/kg nRGD): increased the anti-tumour efficacy of TXT and TXT-micells | body weight and toxicity (4T1 tumours [6]; mouse, in vivo): did not reduce the body weight of the mice or increase the toxicity | life period (glioma): longer life period than the iRGD group | anti-tumour effects of different manners of administration (4T1 tumours [7]): no significant differences | Dox antitumour efficacy versus nRGD concentration (4T1 tumours [8]): positively correlated with Dox antitumour efficacy | weight of mice [9]: did not reduce the weight of mice

CRGD-4Abu-NAA (CRGD[GABA]NAA)
efficacy of doxorubicin (4T1 tumours [10]): can improve the efficacy of doxorubicin

c(RGDfK)-4Abu-AAN (cyclo(RGD[dF]K[GABA]AAN); not fully specified)
efficacy of doxorubicin (4T1 tumours [10]): can improve the efficacy of doxorubicin

COc1cccc2c1C(=O)c1c(O)c3c(c(O)c1C2=O)C[C@@](O)(C(=O)CO)C[C@@H]3O[C@H]1C[C@H](N)[C@H](O)[C@H](C)O1 [Dox, doxorubicin]
tumour weight (4T1 tumours [11]; 5 mg/kg Dox equivalents on day 8 and day 12, coadministration with 4.8 mg/kg nRGD): 1592.0 ± 98.0 mg | tumour growth inhibition rate (TGI) (4T1 tumours [11]; from tumour weight versus control group): 26.3% | IC50 Dox, Raw264.7 IL-4 (Raw 264.7 cells; n = 3, IL-4 stimulated): 0.36 ± 0.07 µg/mL (≈ 0.662 µM) | IC50 Dox, Raw264.7 LPS (Raw 264.7 cells; n = 3, LPS stimulated): 0.81 ± 0.22 µg/mL (≈ 1.49 µM) | IC50 Dox, Raw264.7 Control (Raw 264.7 cells; n = 3, untreated cells): 0.41 ± 0.08 µg/mL (≈ 0.754 µM) | IC50 Dox, HUVEC (HUVEC): 18.12 ± 6.13 µg/mL (≈ 33.3 µM) | IC50 Dox, 4T1 CoCl2 (4T1 cells; n = 3, CoCl2 stimulated): 16.54 ± 2.57 µg/mL (≈ 30.4 µM) | IC50 Dox, 4T1 control (4T1 cells; n = 3, untreated cells): 26.56 ± 1.96 µg/mL (≈ 48.9 µM) | number of regulatory T cells and MDSCs at the tumour sites ([3]; mouse, in vivo): increased

CRGDNAA (not fully specified (residue 4))
efficacy of doxorubicin (4T1 tumours [1]): can improve the efficacy of doxorubicin

B1: nRGD polypeptide CCRGDK(NAA)GPDC, coupled to the surface of doxorubicin liposomes (nRGD-Lipo-Dox) (peptide)
peptide: CCRGDKGPDC
modifications: disulfide 2-10; not fully specified (residue 6); printed as CCRGDK(NAA)GPDC; also: coupled to Mal-PEG2000-DSPE liposome via cysteine
Median lethal dose (IC50) of Dox, 4T1 cells stimulated with CoCl2, 24 h (legumain): 37.9 µg/mL | Median lethal dose (IC50) of Dox, Raw264.7 cells stimulated with IL-4, 24 h (legumain): 23.5 µg/mL
